Test results: patent publication US20220313629A1, “TRANSIENT POTENTIAL MELASTATIN 8 (TRPM8) ANTAGONISTS AND RELATED METHODS” (MARSHALL UNIVERSITY RESEARCH CORPORATION, priority 2019, published 2022)

Legend:
[1] = Stability in liver microsomes; type: in vitro ADME; conditions: mouse liver microsomes, 1 μM, NADPH
Method: Stability in liver microsomes. Male CD-1 mouse liver microsomes (Lot#1710069) were purchased from XenoTech. The reaction mixture, minus NADPH, was prepared as described below. Compound 14 was added into the reaction mixture at a final concentration of 1 μM. The control compound, testosterone, was run simultaneously with Compound 14 in a separate reaction. An aliquot of the reaction mixture (without cofactor) was equilibrated in a shaking water bath at 37° C. for 3 minutes. The reaction was initiated by the addition of the cofactor, and the mixture was incubated in a shaking water bath at 37° C. Aliquots (100 μL) were withdrawn at 0, 10, 20, 30, and 60 minutes. Compound 14 and testosterone samples were immediately combined with 400 μL of ice-cold 50/50 acetonitrile (ACN)/H2O containing 0.1% formic acid and internal standard to terminate the reaction. The samples were then mixed and centrifuged to precipitate proteins. All samples were assayed by LC-MS/MS using electrospray ionization. […] are compared to the PARR at time 0 to determine the percent remaining at each time point. Half-lives and intrinsic clearance were calculated using GraphPad software, fitting to a single-phase exponential decay equation.
In vitro metabolic stability. Compound 14 was evaluated for metabolic stability in mouse liver microsomes by Absorption Systems (Exton, Pa.), by determining the percent remaining at 0, 10, 20, 30 and 60 minutes when incubated with mouse liver microsomes in the presence of NADPH. The half-life (t1/2) and in vitro intrinsic clearance (CLint) of Compound 14 was calculated, in addition to the control (testosterone).

human TRPV1 = human TRPV1 (Homo sapiens, UniProt Q8NER1); assay: TRPV1 agonist and antagonist Ca2+ flux assay (FLIPR, Fluo-8) in HEK293 cells stably expressing human TRPV1; type: cell-based; conditions: for hTRPV1 % Activation (n = 3): normalized to Emax of capsaicin (3 μM)
human TRPV1, sequence (Q8NER1 whole entry): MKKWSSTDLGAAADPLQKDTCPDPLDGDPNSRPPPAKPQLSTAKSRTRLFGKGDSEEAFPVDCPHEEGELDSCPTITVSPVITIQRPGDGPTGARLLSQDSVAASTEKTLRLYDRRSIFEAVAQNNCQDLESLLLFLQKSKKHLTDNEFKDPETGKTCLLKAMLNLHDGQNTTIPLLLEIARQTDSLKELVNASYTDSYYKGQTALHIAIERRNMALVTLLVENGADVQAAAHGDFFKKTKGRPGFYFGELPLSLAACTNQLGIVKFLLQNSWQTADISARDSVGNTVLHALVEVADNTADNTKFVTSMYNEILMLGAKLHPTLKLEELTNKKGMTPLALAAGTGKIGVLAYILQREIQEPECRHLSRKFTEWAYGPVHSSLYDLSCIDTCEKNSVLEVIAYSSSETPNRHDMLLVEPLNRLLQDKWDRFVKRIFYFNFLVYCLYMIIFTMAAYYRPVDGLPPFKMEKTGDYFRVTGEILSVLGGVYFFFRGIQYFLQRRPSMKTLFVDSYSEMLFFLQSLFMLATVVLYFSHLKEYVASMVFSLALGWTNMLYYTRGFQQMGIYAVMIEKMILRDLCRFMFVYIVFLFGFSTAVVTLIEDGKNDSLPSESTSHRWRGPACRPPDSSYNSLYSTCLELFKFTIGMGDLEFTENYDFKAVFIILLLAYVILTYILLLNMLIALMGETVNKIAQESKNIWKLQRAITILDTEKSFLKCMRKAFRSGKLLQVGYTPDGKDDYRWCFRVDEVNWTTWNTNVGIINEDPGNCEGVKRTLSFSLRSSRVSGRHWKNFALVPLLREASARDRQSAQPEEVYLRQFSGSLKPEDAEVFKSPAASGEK

[2] = tested on: Oxaliplatin (OXP)-induced cold allodynia in male C57-mice; assay: Oxaliplatin (OXP)-induced cold allodynia, acetone test; type: in vivo, mouse
Method: In Vivo Assays. C57-mice (≈30g) (Harlam, Holland) were used for the study. All experiments were approved by the Institutional Animal and Ethical Committee of the Universidad Miguel Hernandez where experiments were conducted and they were in accordance with the guidelines of the Economic European Community and the Committee for Research and Ethical Issues of the International Association for the Study of Pain. All parts of the study concerning animal care were performed under the control of veterinarians.
Cold allodynia. Oxaliplatin (Tocris) was dissolved in water with gentle warming and was […] injected on days 1, 3 and 5 at a 6 mg/kg dose. The day 7 after administration, experiments were performed. Together with Oxaliplatin injection, saline and a 5% Mannitol solution were intraperitoneally injected to prevent kidney damage and dehydration. The Compound 14 stock was prepared in DMSO (Sigma-Aldrich) and diluted in saline for injections. Compounds at different doses (0.1 to 1 μg) was injected into the plantar surface (25 μL) of the right hind paw of mice. Cold chemical thermal sensitivity was assessed using acetone drop method. Mice were placed in a metal mesh cage and allowed to habituate for approximately 30 minutes in order to acclimatize them. Freshly dispensed acetone drop (10 μL) was applied gently on to the mid plantar surface of the hind paw. Cold chemical sensitive reaction with respect to paw licking was recorded as a positive response (nociceptive pain response). The responses were measured for 20-s with a digital stopwatch. For each measurement, the paw was sampled twice and the mean was calculated. The interval between each application of acetone was approximately 5 minutes.
Cold Allodynia. […] Both acute and chronic OXP-induced cold hypersensitivity have been reproduced in rats and correlated with TRPM8 expression and function. Mizoguchi et al. reported that, in a rodent model, acute cold allodynia after OXP injection was alleviated by the TRPM8 blockers N-(2-aminoethyl)-N-[4-(benzyloxy)-3-methoxybenzyl]-N′-(1S)-1-(phenyl) ethyl] urea and TC-I 2014. According to these findings, the effect of Compound 14 was investigated in an OXP-induced cold allodynia model, using acetone for cooling stimulation. Considering that the cold pain threshold is increased from ≈12° C. to ≈26° C. in OXP-treated patients, acetone stimulation is considered to evoke pain in OXP-treated mice.
The activity of Compound 14 was evaluated 7 days after three intraperitoneal injections of OXP (6 mg/kg) in C57/BL6 mice, when cold allodynia had developed.

[3] = HEK293, read-out: hTRPV1 % Inhibition (n = 3)
[4] = 0.1 and 1 μg single administration, day 7 after OXP

% Remaining of Initial (n = 1), 0 min ([1]; 0 min): 100%
% Remaining of Initial (n = 1), 10 min ([1]; 10 min): 78%
% Remaining of Initial (n = 1), 20 min ([1]; 20 min): 57%
% Remaining of Initial (n = 1), 30 min ([1]; 30 min): 47%
% Remaining of Initial (n = 1), 60 min ([1]; 60 min): 31%
inhibition at 0.003 µM (human TRPV1; [3]): -9 ± 2%
inhibition at 0.03 µM (human TRPV1; [3]): -0.6 ± 5%
effect on hTRPV1-mediated responses (intrinsic and antagonist activity) (human TRPV1; at concentrations 13- to 25-fold higher than hTRPM8 IC50): do not affect
selectivity for TRPM8 vs. TRPV1 (human TRPV1; from FLIPR single-point assays): 13 fold
hTRPV1 % Activation (n = 3) (human TRPV1; tested at 3 nM): 1 ± 1%
hTRPV1 % Activation (n = 3) (human TRPV1; tested at 30 nM): 1 ± 2%
Structure (SMILES): O=C(NC1CCC2(CCCC2)CC1)c1ccc(-c2ccccc2)cc1 [Compound 14, N-(spiro[4.5]decan-8-yl)-[1,1′-biphenyl]-4-carboxamide]
time after administration at which attenuated cold allodynia is evident [2, 4]: 15 min
time after administration of maximum inhibition of cold allodynia [2, 4]: 30 min
effect on OXP effects at 60 minutes ([2]; 60 minutes after administration): significantly suppresses OXP effects
effect on oxaliplatin-induced cold allodynia ([2]; C57/BL6 mice): able to attenuate oxaliplatin-induced cold allodynia in vivo
